Laboratory results reported in patent US20080292584A1 (priority 2005, published 2008).
“And” between values parts separate entries of the source, which are not always exact repeats. Equal values may be shown once. Read-outs that look alike come from different tables or passages of the source.

Experiments:
CYP2E1 = CYP2E1 (Homo sapiens, UniProt P05181); experiment: Inhibition of CYP2E1 activity in pooled human liver microsomes (chlorzoxazone 50 μM to 6-hydroxy chlorzoxazone); assay type: in vitro ADME; set-up: host or cells: cryopreserved primary human hepatocytes from three donors
Chain of CYP2E1 (P05181 whole entry): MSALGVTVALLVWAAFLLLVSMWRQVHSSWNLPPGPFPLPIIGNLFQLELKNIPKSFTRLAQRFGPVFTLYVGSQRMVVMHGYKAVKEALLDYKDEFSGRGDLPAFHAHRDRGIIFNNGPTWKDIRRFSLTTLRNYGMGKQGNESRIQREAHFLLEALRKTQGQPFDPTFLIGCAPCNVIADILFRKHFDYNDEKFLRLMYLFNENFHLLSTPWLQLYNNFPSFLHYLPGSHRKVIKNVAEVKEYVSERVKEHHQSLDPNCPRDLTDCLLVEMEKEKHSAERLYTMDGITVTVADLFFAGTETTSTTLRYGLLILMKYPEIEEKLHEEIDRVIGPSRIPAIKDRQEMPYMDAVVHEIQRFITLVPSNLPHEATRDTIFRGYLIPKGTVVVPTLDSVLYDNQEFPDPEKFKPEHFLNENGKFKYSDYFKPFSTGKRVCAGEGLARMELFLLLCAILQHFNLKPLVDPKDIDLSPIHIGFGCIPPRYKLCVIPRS
Procedure: All other incubations were for 30 minutes.
Four replicates were performed.
Two replicates were performed.

CYP2C19 = CYP2C19 (Homo sapiens, UniProt P33261); conditions: for 4′-Hydroxymephenytoin formation Adjusted Individual / 4′-Hydroxymephenytoin formation Adjusted Mean ± SD: 4 h; for Percent of VC / Specific Activity Individual / Specific Activity Mean ± SD: 48 h
Chain of CYP2C19 (P33261 whole entry): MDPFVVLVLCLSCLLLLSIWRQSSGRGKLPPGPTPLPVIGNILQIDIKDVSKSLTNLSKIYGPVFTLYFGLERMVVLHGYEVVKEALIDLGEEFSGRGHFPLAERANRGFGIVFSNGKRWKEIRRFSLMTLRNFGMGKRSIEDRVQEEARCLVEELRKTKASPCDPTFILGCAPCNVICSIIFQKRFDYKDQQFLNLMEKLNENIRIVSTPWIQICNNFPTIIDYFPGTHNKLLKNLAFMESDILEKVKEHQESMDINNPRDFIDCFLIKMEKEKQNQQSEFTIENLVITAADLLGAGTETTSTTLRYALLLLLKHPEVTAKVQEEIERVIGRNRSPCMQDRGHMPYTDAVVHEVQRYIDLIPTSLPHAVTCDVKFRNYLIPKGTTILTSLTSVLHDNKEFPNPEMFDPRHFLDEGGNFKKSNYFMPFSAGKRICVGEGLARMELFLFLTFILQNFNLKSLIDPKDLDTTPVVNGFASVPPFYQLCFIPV
Description: (§1) Hepatocytes from three human donors were obtained from a cryopreserved hepatocyte bank (In Vitro Technologies, Inc., USA). After thawing, viable hepatocytes were transferred to collagen-coated 48-well plates for attachment in plating medium (DMEM stock (Dulbecco's modified Eagle's medium, supplemented with bovine serum albumin, fructose, N-(2-hydroxyethyl)piperazine-N′-(2-ethanesulfonate) (HEPES), and sodium bicarbonate), supplemented with antibiotics, bovine serum, hydrocortisone, insulin and minimum essential medium (MEM) nonessential amino acids). After attachment to the collagen matrix, plating medium was replaced with sandwich medium (plating medium supplemented with VITROGEN) and incubated until use.
(§2) The supplemented KHB was replaced with 150 μL supplemented KHB containing the appropriate isoform-selective substrate and incubated for 4 hrs prior to termination by adding 150 μL ice-cold methanol, except for the CYP2C8 incubations which were terminated by adding 150 μL acetonitrile.
(§3) All substrates were dissolved in acetonitrile.
(§4) Replicate trials and controls were performed. […] Additionally, reference control samples were included to evaluate inducibility of CYP2B6, CYP2C9, and CYP2C19 in the test system.
(§5) Mean specific activity values with associated p-values≦0.05 were deemed to be statistically significant.

CYP2C9 [1] = molecular target: T1, CYP2C9 (Homo sapiens, UniProt P11712); experiment: Metabolism of metaxalone by expressed recombinant human CYP2C9 (Example 1); conditions: 30 min
T1 sequence (P11712 whole entry): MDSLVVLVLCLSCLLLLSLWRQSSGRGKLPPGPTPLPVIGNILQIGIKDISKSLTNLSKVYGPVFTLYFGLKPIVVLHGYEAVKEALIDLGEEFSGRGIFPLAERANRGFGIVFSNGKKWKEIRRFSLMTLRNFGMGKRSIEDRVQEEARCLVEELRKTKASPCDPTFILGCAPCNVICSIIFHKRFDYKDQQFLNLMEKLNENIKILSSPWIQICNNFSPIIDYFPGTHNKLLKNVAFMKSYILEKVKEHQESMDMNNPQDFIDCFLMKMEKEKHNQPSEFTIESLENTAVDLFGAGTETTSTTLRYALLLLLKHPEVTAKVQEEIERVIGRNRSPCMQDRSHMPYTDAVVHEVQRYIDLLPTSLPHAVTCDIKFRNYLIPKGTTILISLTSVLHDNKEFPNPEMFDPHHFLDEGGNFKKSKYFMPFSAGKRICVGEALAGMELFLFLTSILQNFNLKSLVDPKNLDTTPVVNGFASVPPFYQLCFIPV
Procedure: Commercially available microsomes from baculovirus-infected insect cells containing singly-expressed recombinant wild-type (*1 allele) human CYP enzymes and cDNA-expressed human cytochrome p450 oxidoreductase [BD SUPERSOMES Enzymes; BD Biosciences Discovery Labware (Woburn, Mass.)] were used.
After a 5-minute pre-incubation, an NADPH regenerating system (NRS) was added to the incubation mixtures to initiate reactions, with a final incubation volume of 0.5 mL. Incubations were continued for 30 minutes, and then terminated, except for those for CYP2C19, which were incubated for 36 minutes prior to termination.
Matrix controls were performed to determine the background signal from the matrix components (microsomes (10 pmol p450), 01N Tris buffer, NRS, and 1% methanol). […] After a 5-minute pre-incubation, 2% sodium bicarbonate solution was added to the incubation mixtures. Incubation was for 30 minutes at a final volume of 0.5 mL. Matrix and metabolic negative controls were terminated by adding an equal volume of methanol. […] Analysis of samples was subsequent to storage at −70° C.

[2] = in vivo; Bruce et al. 1966; cited from earlier work
CYP2C9 [3] = molecular target: T1, CYP2C9; experiment: Metabolism of metaxalone by expressed recombinant human CYP2C9 at 5 or 20 pmol (Example 4); conditions: for % Turnover Mean / [metaxalone] Mean / % Turnover % / [metaxalone]: 60 min; for % Turnover % / [metaxalone]: single replicates, listed as Metaxalone
Procedure: For CYP2C9 and CYP2D6, SUPERSOMES singly-expressing different allelic variants of the cytochrome p450 isozyme were commercially available. For each of CYP2C9 and CYP2D6, only the *1 allele was tested in these experiments. […]

CYP2B6 [4] = experiment: Induction/inhibition of CYP2B6 activity in cryopreserved human hepatocytes (S-mephenytoin); conditions: human; for Nirvanol formation Adjusted Mean ± SD: 48 h
Description: as §1, §2, §3, §4, §5

CYP2B6 [5] = experiment: Chemical inhibition of metaxalone turnover in human liver microsomes, CYP2B6 inhibitor thio-TEPA; conditions: 1 mg/mL HLM, 60 min, with thio-TEPA; for % Turnover / % inhibition of turnover / Conc.: single replicates
Procedure: Human liver microsomes pooled from 15 individuals (male and female) (Pool HMMC-PL020; CellzDirect, Inc., In Vitro Products and Services Division) were used in some experiments of this study.
% Turnover=100−{[TA(final)]/[mean of TA(0 min)]}×100,
% Inhibition of Turnover=100{1−([TA(0 min)]−[TA(final-inhibitor)])/([TA(0 min)]−[TA(final-no inhibitor)])}.
The inhibitors or vehicle control were incubated with the pooled human liver microsomes (1 mg/mL) and NADPH (1 mM) in 0.1 M phosphate buffer, pH 7.4. […] Incubations were conducted in triplicate and terminated by addition of organic solvent. Samples were extracted and analyzed by LC-MS/MS as described above.

[6] = 0.75 μM metaxalone, 20 pmol cyp
[7] = 7.5 μM metaxalone, listed as Metaxalone

Cc1cc(C)cc(OCC2CNC(=O)O2)c1 (centres unmarked) [metaxalone, 5-[(3,5-dimethylphenoxy)methyl]-2-oxazolidinone]
inhibition of CYP activity at a statistically significant level (CYP2E1; 0.3-100 μM metaxalone, p≦0.05): inhibited
Inhibitor (CYP2E1; CYP isozyme 2E1, summary of studies): +
inhibition at 30 min, 100 μM (CYP2E1; human, pooled human liver microsomes, probe chlorzoxazone 50 μM (to 6-hydroxy chlorzoxazone)): 12.8%
Percent of VC (CYP2E1; metaxalone 0.3 μM): 83.3%
Specific Activity Individual (CYP2E1; metaxalone 0.3 μM): 196 pmol/min/mg protein and 187 pmol/min/mg protein and 185 pmol/min/mg protein
Specific Activity Mean ± SD (CYP2E1; metaxalone 0.3 μM): 189 ± 6.08 pmol/min/mg protein
Percent of VC (CYP2E1; metaxalone 1 μM): 84.0%
Specific Activity Individual (CYP2E1; metaxalone 1 μM): 194 pmol/min/mg protein (2×) and 185 pmol/min/mg protein
Specific Activity Mean ± SD (CYP2E1; metaxalone 1 μM): 191 ± 5.18 pmol/min/mg protein
Percent of VC (CYP2E1; metaxalone 3 μM): 88.6%
Specific Activity Individual (CYP2E1; metaxalone 3 μM): 203 pmol/min/mg protein (2×) and 198 pmol/min/mg protein
Specific Activity Mean ± SD (CYP2E1; metaxalone 3 μM): 201 ± 2.94 pmol/min/mg protein
Percent of VC (CYP2E1; metaxalone 30 μM): 86.1%
Specific Activity Individual (CYP2E1; metaxalone 30 μM): 191 pmol/min/mg protein and 199 pmol/min/mg protein and 197 pmol/min/mg protein
Specific Activity Mean ± SD (CYP2E1; metaxalone 30 μM): 196 ± 3.88 pmol/min/mg protein
Percent of VC (CYP2E1; metaxalone 100 μM): 87.2%
Specific Activity Individual (CYP2E1; metaxalone 100 μM): 200 pmol/min/mg protein and 202 pmol/min/mg protein and 193 pmol/min/mg protein
Specific Activity Mean ± SD (CYP2E1; metaxalone 100 μM): 198 ± 4.66 pmol/min/mg protein
Inducer/Inhibitor (CYP2C19): 0
4′-Hydroxymephenytoin formation Adjusted Individual (CYP2C19; 0.4 µM): <0.0500 µM
4′-Hydroxymephenytoin formation Adjusted Mean ± SD (CYP2C19; 0.4 µM): <0.0500 ± 0.000 µM
4′-Hydroxymephenytoin formation Adjusted Individual (CYP2C19; 0.4 μM): <0.0500 µM
4′-Hydroxymephenytoin formation Adjusted Mean ± SD (CYP2C19; 0.4 μM): <0.0500 ± 0.000 µM
4′-Hydroxymephenytoin formation Adjusted Individual (CYP2C19; 4 µM): <0.0500 µM
4′-Hydroxymephenytoin formation Adjusted Mean ± SD (CYP2C19; 4 µM): <0.0500 ± 0.000 µM
4′-Hydroxymephenytoin formation Adjusted Individual (CYP2C19; 4 μM): <0.0500 µM
4′-Hydroxymephenytoin formation Adjusted Mean ± SD (CYP2C19; 4 μM): <0.0500 ± 0.000 µM
4′-Hydroxymephenytoin formation Adjusted Individual (CYP2C19; 40 µM): <0.0500 µM
4′-Hydroxymephenytoin formation Adjusted Mean ± SD (CYP2C19; 40 µM): <0.0500 ± 0.000 µM
4′-Hydroxymephenytoin formation Adjusted Individual (CYP2C19; 40 μM): <0.0500 µM
4′-Hydroxymephenytoin formation Adjusted Mean ± SD (CYP2C19; 40 μM): <0.0500 ± 0.000 µM
Percent of VC (CYP2C19; 0.4 µM): 100%
Specific Activity Individual (CYP2C19; 0.4 µM): <0.446 pmol/min/million cells
Specific Activity Mean ± SD (CYP2C19; 0.4 µM): <0.446 ± 0.000 pmol/min/million cells
Percent of VC (CYP2C19; 0.4 μM): 100%
Specific Activity Individual (CYP2C19; 0.4 μM): <0.446 pmol/min/million cells
Specific Activity Mean ± SD (CYP2C19; 0.4 μM): <0.446 ± 0.000 pmol/min/million cells
Percent of VC (CYP2C19; 4 µM): 100%
Specific Activity Individual (CYP2C19; 4 µM): <0.446 pmol/min/million cells
Specific Activity Mean ± SD (CYP2C19; 4 µM): <0.446 ± 0.000 pmol/min/million cells
Percent of VC (CYP2C19; 4 μM): 100%
Specific Activity Individual (CYP2C19; 4 μM): <0.446 pmol/min/million cells
Specific Activity Mean ± SD (CYP2C19; 4 μM): <0.446 ± 0.000 pmol/min/million cells
Percent of VC (CYP2C19; 40 µM): 100%
Specific Activity Individual (CYP2C19; 40 µM): <0.446 pmol/min/million cells
Specific Activity Mean ± SD (CYP2C19; 40 µM): <0.446 ± 0.000 pmol/min/million cells
Percent of VC (CYP2C19; 40 μM): 100%
Specific Activity Individual (CYP2C19; 40 μM): <0.446 pmol/min/million cells
Specific Activity Mean ± SD (CYP2C19; 40 μM): <0.446 ± 0.000 pmol/min/million cells
Metaxalone Present Adjusted Individual (CYP2C9 [1]; metaxalone 0.5 μM): 0.360 µM and 0.348 µM
Metaxalone Present Adjusted Mean ± SD (CYP2C9 [1]; metaxalone 0.5 μM): 0.355 ± 0.00608 µM
Metaxalone Present Raw (CYP2C9 [1]; metaxalone 0.5 μM): 0.18 µM and 0.1778 µM and 0.174 µM
Percent of Metabolic Negative Control Individual (CYP2C9 [1]; metaxalone 0.5 μM): 103% and 102%
Percent of Metabolic Negative Control Mean ± SD (CYP2C9 [1]; metaxalone 0.5 μM): 102 ± 1.75%
Metaxalone Present Adjusted Individual (CYP2C9 [1]; metaxalone 2.5 μM): 1.94 µM and 1.93 µM and 1.89 µM
Metaxalone Present Adjusted Mean ± SD (CYP2C9 [1]; metaxalone 2.5 μM): 1.92 ± 0.0246 µM
Metaxalone Present Raw (CYP2C9 [1]; metaxalone 2.5 μM): 0.9684 µM and 0.9659 µM and 0.946 µM
Percent of Metabolic Negative Control Individual (CYP2C9 [1]; metaxalone 2.5 μM): 101% and 100%
Percent of Metabolic Negative Control Mean ± SD (CYP2C9 [1]; metaxalone 2.5 μM): 99.7 ± 1.28%
Metaxalone Present Adjusted Individual (CYP2C9 [1]; metaxalone 25 μM): 21.3 µM and 21.6 µM and 21.5 µM
Metaxalone Present Adjusted Mean ± SD (CYP2C9 [1]; metaxalone 25 μM): 21.5 ± 0.144 µM
Metaxalone Present Raw (CYP2C9 [1]; metaxalone 25 μM): 10.66 µM and 10.8 µM and 10.73 µM
Percent of Metabolic Negative Control Individual (CYP2C9 [1]; metaxalone 25 μM): 100% and 102% and 101%
Percent of Metabolic Negative Control Mean ± SD (CYP2C9 [1]; metaxalone 25 μM): 101 ± 0.675%
metaxalone converted to a carboxylic acid derivative [2]: 27%
% Turnover Mean (CYP2C9 [3]; 0.75 μM metaxalone, 5 pmol cyp): 1.6%
[metaxalone] Mean (CYP2C9 [3]; 0.75 μM metaxalone, 5 pmol cyp): 0.779 µM
% Turnover % (CYP2C9 [3]; 0.75 μM metaxalone, 5 pmol cyp): 6.1% and 5.4% and −6.8%
[metaxalone] (CYP2C9 [3]; 0.75 μM metaxalone, 5 pmol cyp): 0.743 µM and 0.749 µM and 0.845 µM
% Turnover Mean (CYP2C9 [3]; [6]): 2.4%
[metaxalone] Mean (CYP2C9 [3]; [6]): 0.772 µM
% Turnover % (CYP2C9 [3]; [6]): 8.7% and 4.0% and −5.4%
[metaxalone] (CYP2C9 [3]; [6]): 0.722 µM and 0.760 µM and 0.834 µM
% Turnover Mean (CYP2C9 [3]; 7.5 μM metaxalone, 5 pmol cyp): 7.9%
[metaxalone] Mean (CYP2C9 [3]; 7.5 μM metaxalone, 5 pmol cyp): 7.78 µM
% Turnover % (CYP2C9 [3]; 7.5 μM metaxalone, 5 pmol cyp): 14.3% and 2.9% and 6.4%
[metaxalone] (CYP2C9 [3]; 7.5 μM metaxalone, 5 pmol cyp): 7.24 µM and 8.20 µM and 7.90 µM
% Turnover Mean (CYP2C9 [3]; 7.5 μM metaxalone, 20 pmol cyp): 3.7%
[metaxalone] Mean (CYP2C9 [3]; 7.5 μM metaxalone, 20 pmol cyp): 8.13 µM
% Turnover % (CYP2C9 [3]; 7.5 μM metaxalone, 20 pmol cyp): −1.1% and 1.6% and 10.7%
[metaxalone] (CYP2C9 [3]; 7.5 μM metaxalone, 20 pmol cyp): 8.54 µM and 8.31 µM and 7.54 µM
Substrate (CYP2C9 [3]; CYP isozyme 2C9, summary of studies): +
Inducer/Inhibitor (CYP2B6 [4]): 0
Nirvanol formation Adjusted Mean ± SD (CYP2B6 [4]; 0.4 μM): 0.0340 ± 0.000883 µM
Nirvanol formation Adjusted Mean ± SD (CYP2B6 [4]; 4 μM): 0.0305 ± 0.00272 µM
% Turnover Mean (CYP2B6 [5]; 0.75 μM metaxalone): 12.4%
% inhibition of turnover Mean (CYP2B6 [5]; 0.75 μM metaxalone): 58.3%
Mean Conc. (CYP2B6 [5]; 0.75 μM metaxalone): 0.676 µM
% Turnover (CYP2B6 [5]; 0.75 μM metaxalone): 12.1% and 11.3% and 13.8%
% inhibition of turnover (CYP2B6 [5]; 0.75 μM metaxalone): 59.3% and 62.0% and 53.7%
Conc. (CYP2B6 [5]; 0.75 μM metaxalone): 0.678 µM and 0.684 µM and 0.665 µM
% Turnover Mean (CYP2B6 [5]; 7.5 μM metaxalone): 14.0%
% inhibition of turnover Mean (CYP2B6 [5]; 7.5 μM metaxalone): 43.3%
Mean Conc. (CYP2B6 [5]; 7.5 μM metaxalone): 7.33 µM
% Turnover (CYP2B6 [5]; 7.5 μM metaxalone): 7.7%
% Turnover (CYP2B6 [5]; [7]): 14.8% and 19.4%
% inhibition of turnover (CYP2B6 [5]; [7]): 68.7% and 40.0% and 21.1%
Conc. (CYP2B6 [5]; [7]): 7.86 µM and 7.26 µM and 6.86 µM
